Laboratory results taken from ChEMBL document CHEMBL2202983, “Structure-anti-leukemic activity relationship study of ortho-dihydroxycoumarins in U-937 cells: key role of the δ-lactone ring in determining differentiation-inducing potency and selective pro-apoptotic action” (Bioorg Med Chem, 2012).
The source made the active and inactive calls. The calls are words filed in the database; no cut-off is given here.

Legend:
[1] = tested on: U-937; experiment: Induction of apoptosis in human U937 cells assessed as activation of caspase-3 at 500 uM after 24 hrs by colorimetric assay; assay type: functional, cell-based
[2] = tested on: U-937; experiment: Induction of cell differentiation in human U937 cells assessed as increase of CD11b and CD14 expression at 500 uM after 72 hrs by FACS flow cytometer analysis; assay type: functional, cell-based
[3] = tested on: U-937; experiment: Cytotoxicity against human U937 cells after 48 hrs by trypan blue assay; assay type: functional; settings: U-937, 48 h
[4] = tested on: U-937; experiment: Antiproliferative activity against human U937 cells assessed as incorporation of [3H]-methyl-thymidine after 12 hrs by scintillation counting; assay type: functional, cell-based
[5] = Pro-oxidant activity in 0.1 M potassium phosphate buffer at pH 7.4 assessed as increase of oxidation potential by cyclic voltammetry analysis; assay type: physicochemical
[6] = tested on: U-937; experiment: Pro-oxidant activity in human U937 cells assessed as DCF-DA oxidation at 10 to 250 uM after 48 hrs by fluorescence assay; assay type: functional, cell-based
[7] = tested on: Jurkat; experiment: Induction of apoptosis in human Jurkat cells assessed as activation of caspase-3-mediated PARP cleavage at 500 uM after 24 hrs by colorimetric assay; assay type: functional, cell-based
[8] = tested on: PBMC; experiment: Cytotoxicity against human PBMC at 500 uM after 48 hrs by trypan blue assay; assay type: cell-based
[9] = tested on: U-937; experiment: Inhibition of clonogenic activity in human U937 cells assessed as reduction of colony formation in soft agar at 100 to 250 uM after 24 hrs using crystal violet staining; assay type: functional, cell-based
[10] = tested on: U-937; experiment: Induction of cell differentiation in human U937 cells assessed as increase of rhC5a-induced response at 500 uM after 72 hrs by FACS flow cytometer analysis; assay type: functional, cell-based
[11] = tested on: U-937; experiment: Induction of apoptosis in human U937 cells assessed as phosphatidylserine expression in plasma membrane at 500 uM after 24 hrs by Annexin V-FITC double staining; assay type: functional, cell-based
[12] = tested on: U-937; experiment: Induction of cell differentiation in human U937 cells assessed as increase of CD88 expression at 500 uM after 72 hrs by FACS flow cytometer analysis; assay type: functional, cell-based
[13] = tested on: U-937; experiment: Cell cycle arrest in human U937 cells assessed as accumulation at sub-G0/G1 phase at 250 uM after 24 hrs using propidium iodide staining by FACS analysis; assay type: functional, cell-based
[14] = tested on: U-937; experiment: Induction of apoptosis in human U937 cells assessed as activation of caspase-3 at 250 uM after 24 hrs by colorimetric assay; assay type: functional, cell-based
[15] = Induction of free radicals production in RPMI 1640 medium at pH 7.4 by electron spin resonance analysis; assay type: physicochemical
[16] = tested on: U-937; experiment: Induction of apoptosis in human U937 cells assessed as PARP cleavage at 250 uM after 24 hrs by Western blot analysis; assay type: functional, cell-based
[17] = tested on: U-937; experiment: Induction of apoptosis in human U937 cells assessed as reduction of normal cells at 250 uM after 24 hrs by Annexin V-FITC double staining; assay type: functional, cell-based
[18] = tested on: U-937; experiment: Induction of apoptosis in human U937 cells assessed as active 11 kDa fragment of caspase-3 at 250 uM after 24 hrs by Western blot analysis; assay type: functional, cell-based
[19] = Induction of free radicals production in carbonate buffer at pH 9 by electron spin resonance analysis; assay type: physicochemical
[20] = tested on: U-937; experiment: Induction of apoptosis in human U937 cells assessed as reduction of normal cells at 1000 uM after 24 hrs by Annexin V-FITC double staining; assay type: functional, cell-based
[21] = tested on: U-937; experiment: Induction of apoptosis in human U937 cells assessed as activation of caspase-3 at 1000 uM after 48 hrs by colorimetric assay; assay type: functional, cell-based
[22] = tested on: Jurkat; experiment: Induction of apoptosis in human Jurkat cells assessed as activation of caspase-3 at 500 uM after 24 hrs by colorimetric assay; assay type: functional, cell-based
[23] = tested on: U-937; experiment: Induction of DNA damage in human U937 cells; assay type: functional, cell-based
[24] = tested on: U-937; experiment: Induction of apoptosis in human U937 cells assessed as phosphatidylserine expression in plasma membrane at 1000 uM after 24 hrs by Annexin V-FITC double staining; assay type: functional, cell-based
[25] = tested on: Jurkat; experiment: Cytotoxicity against human Jurkat at 250 uM after 48 hrs by trypan blue assay; assay type: functional, cell-based
[26] = tested on: U-937; experiment: Induction of cell differentiation in human U937 cells assessed as increase of rhC5a-induced response at 250 to 500 uM after 72 hrs by FACS flow cytometer analysis; assay type: functional, cell-based
[27] = tested on: Jurkat; experiment: Induction of apoptosis in human Jurkat cells at 500 uM after 48 hrs by Annexin V-FITC double staining; assay type: functional, cell-based
[28] = tested on: U-937; experiment: Induction of cell differentiation in human U937 cells assessed as increase of CD88 expression at 250 to 500 uM after 72 hrs by FACS flow cytometer analysis; assay type: functional, cell-based
[29] = tested on: U-937; experiment: Induction of cell differentiation in human U937 cells assessed as increase of CD11b and CD14 expression at 250 to 500 uM after 72 hrs by FACS flow cytometer analysis; assay type: functional, cell-based

Compound | Activity [1] | Activity [2] | CC50 [3] [mM] | IC50 [4] [µM] | Activity [5] | colony formation inhibition (active/not active) [9] | further results
Cc1cc(=O)oc2ccc(O)cc12 | inactive | Active | > 2 |  |  |  | 
CC(=O)c1c(O)ccc2c(C)cc(=O)oc12 | inactive | Active | > 1 | 454 |  |  | 
O=c1cccco1 |  | Active | > 2 | > 2000 | Not Active |  | 
COc1ccc2c(C)cc(=O)oc2c1OC | inactive | inactive | > 2 | 736 | Not Active | inactive | Activity [6]: inactive; Activity [7]: inactive; Activity [8]: Non-toxic; Activity [10]: inactive; Activity [11]: Active; Activity [12]: inactive
Cc1cc(=O)oc2cc(O)c(Cl)cc12 | inactive | inactive | 0.734 | 771 |  |  | 
COc1cc(C)oc(=O)c1 |  | Active | > 2 | > 2000 | Not Active |  | 
COc1ccc(/C=C/C(=O)O)cc1OC |  |  | > 2 | > 2000 | Active |  | 
Cc1cc(C)oc(=O)c1 |  | Active | > 2 | > 2000 | Not Active |  | 
COc1ccc(CCC(=O)O)cc1OC |  | inactive | > 2 | > 2000 | Active |  | Activity [6]: inactive; Activity [7]: inactive; Activity [8]: Non-toxic; Activity [10]: inactive; Activity [12]: inactive
Cc1cc(O)cc(=O)o1 |  | Active | > 2 | > 2000 | Not Active |  | 
Cc1cc(O)nc2cc(O)ccc12 | inactive | Active | > 1 | 259 |  |  | 
Cc1cc(=O)oc2cc(O)c(O)cc12 [4-METHYLESCULETIN] |  |  | 0.076 | 97.4 |  | Active | Activity [13]: Active; Activity [14]: Active; Activity [15]: Active; Activity [16]: Active; Activity [17]: Active; Activity [18]: Active; Activity [19]: Active
Cc1cc(=O)oc2cc(O)cc(O)c12 [5,7-DIHYDROXY-4-METHYLCOUMARIN] | inactive | Active | > 2 | > 2000 |  |  | 
O=C(O)/C=C/c1ccc(O)c(O)c1 [CAFFEIC ACID] |  |  | > 2 | 316 |  | inactive | Activity [20]: inactive; Activity [15]: Active; Activity [21]: inactive; Activity [19]: Active
O=C(O)/C=C/c1ccc(O)cc1 [COUMARIC ACID] |  | inactive | > 2 | > 2000 |  |  | 
O=C(O)CCc1ccc(O)c(O)c1 [DIHYDROCAFFEIC ACID] |  |  | > 2 | 213 | Active | inactive | Activity [6]: inactive; Activity [22]: Active; Activity [23]: inactive; Activity [7]: Active; Activity [20]: inactive; Activity [15]: Active; Activity [24]: Active; Activity [25]: Active; Activity [26]: Active; Activity [27]: inactive; Activity [21]: inactive; Activity [28]: Active; Activity [29]: Active; Activity [19]: Active
O=c1ccc2cc(O)c(O)cc2o1 [ESCULETIN] |  |  | 0.107 | 143 |  | Active | Activity [13]: Active; Activity [14]: Active; Activity [15]: Active; Activity [16]: Active; Activity [17]: Active; Activity [18]: Active; Activity [19]: Active
COc1cc2ccc(=O)oc2c(O)c1O [FRAXETIN] |  |  | 0.0702 | 143 |  | Active | Activity [13]: Active; Activity [14]: Active; Activity [15]: Active; Activity [16]: Active; Activity [17]: Active; Activity [18]: Active; Activity [19]: Active
Cc1cc(=O)oc2cc(O)ccc12 [HYMECROMONE] | inactive | Active | > 2 | 711 |  | inactive | Activity [6]: inactive
COc1cc2ccc(=O)oc2cc1OC [SCOPARONE] | inactive |  | 1.29 | 590 | Not Active |  | 
COc1cc2ccc(=O)oc2cc1O [SCOPOLETIN] | inactive | inactive | > 2 | 976 |  |  | 
